# Experiments:
# [1] = system: human decidual stromal cells (hDSCs), bone marrow-derived macrophages (rMac) and human peripheral blood mononuclear cells (hPBMCs); settings: Ref. 72; cited from earlier work
# [2] = PET imaging and ex vivo biodistribution studies; format: in vivo, athymic nude mice; settings: for SUV Average ± SD: day 7 post-injection, free [^89Zr]ZrCl4, tail vein, n = 3
# Experimental: 8-10 weeks old Athymic nude mice (male and female, 1:1) were obtained from Charles Rivers Laboratories or Taconic Biosciences, Inc.
# After radiolabeling, the radiolabeled WBCs-0.1-0.6×10^6 (0.03-0.11 MBq); and SCs-0.1-1×10^6 (0.1-0.15 MBq) were injected in a group (n=3) of athymic nude mice, via tail vein injection. PET images were acquired at 4 hours, 2 days, 4 days and 7 days post-injection (p.i.) using microPET scanner. The free [^89Zr] ZrCl4 with radioactivity (0.15-0.19 MBq) was also injected intravenously via tail vein injection. The micro PET images were analyzed and scaled to SUV by image analysis software. The animals were euthanized at 7 days p.i., and organs/tissues were collected to measure standardized uptake value (SUV) in major organs. Animals were euthanized via cardiectomy under anesthesia using isoflurane as approved by the Institutional Animal Care and Use Committee (IACUC) of the Mayo Clinic Rochester MN, USA.
# [3] = Stability of HPLC-purified [^89Zr]Zr-DBN with and without ascorbic acid (HPLC); format: physicochemical; settings: for stability of [^89Zr]Zr-DBN: stored at -20° C.
# Experimental: The purified and concentrated [^89Zr] Zr-DBN was stored at −20° C. and stability was tested at 0 hours, 24 hours, and 72 hours post HPLC purification and concentration in comparison with unpurified [^89Zr] Zr-DBN which was also stored at −20° C. To test the stability, the frozen [^89Zr] Zr-DBN was allowed to come to room temperature and reconstituted with ˜100 μL DMSO. The reconstituted [^89Zr] Zr-DBN (˜ 3.7 MBq) was diluted with ˜900 μL neutralized deionized water (pH 7.0) and pH was further adjusted to pH 7.0 using 1M Na2CO3. The stability of reconstituted and neutralized [^89Zr] Zr-DBN was tested using the same HPLC method that was used for [^89Zr] Zr-DBN purification.
# The HPLC purified [^89Zr] Zr-DBN (˜7.2 mL) was divided into two equal parts of ˜3.6 mL each. In one-part, 25 μL of 200 mg/mL ascorbic acid (Sigma Aldrich, St. Louis, MO, USA) was added. Both ascorbic acid treated, and untreated fractions were concentrated at 0.42 torr and room temperature. […] Zr-DBN purification.
compound,measurement,setting,value
[89Zr+4].[O-]c1cccc2cccnc12.[O-]c1cccc2cccnc12.[O-]c1cccc2cccnc12.[O-]c1cccc2cccnc12 [[^89Zr] Zr-oxine],apparent efflux of ^89Zr from the labeled cells,[1],29-38%
"[Cl][89Zr]([Cl])([Cl])[Cl] [[^89Zr]ZrCl4, [^89Zr] ZrCl4]",SUV Average ± SD,[2]; Bladder,0.32 ± 0.09
same,SUV Average ± SD,[2]; Blood,0.12 ± 0.01
same,SUV Average ± SD,[2]; Bone,9.89 ± 0.4
same,SUV Average ± SD,[2]; Brain,0.02 ± 0.02
same,SUV Average ± SD,[2]; Heart,0.26 ± 0.03
same,SUV Average ± SD,[2]; Intestine,0.09 ± 0.01
same,SUV Average ± SD,[2]; Kidney,0.49 ± 0.07
same,SUV Average ± SD,[2]; Liver,0.61 ± 0.07
same,SUV Average ± SD,[2]; Lung,0.36 ± 0.06
same,SUV Average ± SD,[2]; Muscle,0.14 ± 0.05
same,SUV Average ± SD,[2]; Pancreas,0.29 ± 0.02
same,SUV Average ± SD,[2]; Skin,0.42 ± 0.14
same,SUV Average ± SD,[2]; Spleen,0.39 ± 0.09
same,SUV Average ± SD,[2]; Urine,0.08 ± 0.03
same,distribution of radioactivity on micro PET imaging,"[2]; intravenous injection, 4 hours, 2 days, 4 days, 7 days",high accumulation of free ^89Zr in the bones
[^89Zr] zirconium-p-isothiocyanatobenzyl-desferrioxamine [[^89Zr] Zr-DBN],stability of [^89Zr]Zr-DBN,"[3]; 72 hours post HPLC purification, without ascorbic acid",66%
same,stability of [^89Zr]Zr-DBN,"[3]; 72 hours, with addition of ascorbic acid (25 μL of 200 mg/mL)",> 82%
same,enhancement of the 27.1 minutes HPLC peak for [^89Zr]Zr-DBN by ascorbic acid,"[3]; immediately after concentration, ascorbic acid added before the concentration step",~12%
